Experimental data from patent US11649430B2 (priority 2018, dated 2023).

Tested on: R. solanacearum
Format: cell-based, Ralstonia solanacearum
Settings: ΔrmyA mutant strain (more sensitive than WT); 0.4 mM; 24 hours

Compound	R. solanacearum growth (OD)
COC1=C(O)C(=O)C2=C(C1=O)[C@H]1N[C@@H](Cc3c[nH]c4ccccc34)C(=O)N1C(C(=O)N[C@@H](CC(C)CO)C(=O)O)C2 (some centres unmarked) [Imizoquin A, imizoquin A]	decreases R. solanacearum growth modestly
COC1=C(O)C(=O)C2=C(C1=O)[C@H]1N[C@@H](Cc3c[nH]c4ccccc34)C(=O)N1C(C(=O)N[C@@H](CC(CO)CO)C(=O)O)C2 (some centres unmarked) [Imizoquin B, imizoquin B]	decreases R. solanacearum growth modestly
